Data: patent publication US7902422B2 (priority 2004, dated 2011)
Where a SMILES comes first, the peptide text is derived from it. [ ]: non-standard residue; d: D form. The star is where a group is joined. Nva = CCC[C@H](N)C(=O)O; Cbz = O=C(OCc1ccccc1)*

What was measured:
EIN3 protein [1] = assay: EIN3 protein immunoblot, etiolated wild-type seedlings; format: in vivo, Arabidopsis
Description: With the exception of eto2 in Landsberg erecta (Ler) background, the ecotype Columbia (Col-0) was the parent strain for all mutant and transgenic lines described herein. Arabidopsis seeds were surface-sterilized and plated on the surface of MS medium (4.3 g MS salts, 10 g sucrose, pH 5.7, 8 g bactoagar per liter). After 3-4 days in the light at 4° C., the plates were wrapped in foil and kept in a 24° C. incubator before the phenotypes of seedlings were analyzed. For propagation, seedlings from plates were transferred to soil (Promix-HP) and grown to maturity at 22° C. under a 16 hr light/8 hr dark cycle.
(§1) Ethylene treatment of Arabidopsis seedlings grown on plates was performed in containers by flowing through hydrocarbon-free air supplemented with 10 ppm (parts per million) ethylene or were treated with hydrocarbon-free air alone (Kieber et al., Cell 72, 427-441, 1993). For drug treatments, Arabidopsis suspension cell cultures were treated with MG132 (50 μM), MG115 (50 μM), Pefabloc SC (100 μM) or DMSO (0.1%) for a time course study. Alternatively, etiolated seedlings were germinated for three days on a disc of Whatman paper resting on the surface of MS medium. MG132 (50 μM), MG115 (50 μM), Pefabloc SC (100 μM) or DMSO (0.1%) was added to the paper discs for 4 hr. Cycloheximide (100 μM) was added to the paper discs and ethylene or air was applied for different amounts of time.

EIN3-GFP fusion protein [2] = assay: EIN3-GFP nuclear accumulation, fluorescence microscopy of transgenic seedlings; format: in vivo, Arabidopsis; conditions: for abundance of EIN3-GFP in the nucleus: hypocotyl and root cells, ACC 50 μM or MG132 50 μM, absence of ethylene for MG132
Description: Transgenic seedlings that expressed a functional EIN3-GFP fusion protein were mounted on glass slides using PBS as a mounting medium. All images were collected on a fluorescence microscope (Olympus BX60) and the color of the images was artificially added in Photoshop 5.0 (Adobe Systems). For the time course experiment, after the first cell image was taken, 50 μM of ACC or MG132 was applied to the slide and the same cell was followed for 4 hr.

EIN3 protein [3] = assay: EIN3 protein immunoblot, Arabidopsis suspension cell cultures; format: cell-based; conditions: suspension cells; MG132 50 μM (after 30 min), MG115 50 μM, Pefabloc SC 100 μM
Description: as §1

[4] = system: transgenically overexpressed EIN3 protein; format: in vivo, Arabidopsis; conditions: for abundance of transgenically overexpressed EIN3 protein: EIN3ox seedlings grown in air, MG132 50 μM, MG115 50 μM, Pefabloc SC 100 μM, 4 hr
Description: as §1

EBF1 gene = conditions: in vivo
Description: (§2) (A) Alignment of EBF1 (SEQ ID NO: 2) and EBF2 (SEQ ID NO: 4) amino acid sequences generated with ClustalW program. Identical amino acid residues in the two proteins are highlighted with black boxes. […] (B) Alignment of F-box motif sequences. […] Identities and similarities among the different proteins are highlighted by black and gray, respectively. Consensus residues are denoted by asterisks. […] Etiolated wild-type seedlings were treated with air (air) or ethylene (C2H4) for 4 hr before RNA was extracted for analysis. Each treatment was performed in replicate. The means of normalized intensity were used to indicate relative expression levels.

EBF2 gene = conditions: in vivo
Description: as §2

EIN3-GFP fusion protein [5] = conditions: immunoblot, ethylene treatment
Description: Protein samples were prepared by homogenizing the powdered tissues in 2×SDS-PAGE sample buffer and boiling the homogenate for 5 min. After centrifugation, the protein extracts were fractionated by 4-12% gradient Tris-Glycine Novex precast gels (Invitrogen), blotted onto a nitrocellulose filter. The blot was probed first with anti-EIN3 antibody, and was subsequently stripped with 0.2 N glycine (pH 2.5) for 3 times and re-probed with either anti-CRY1 antibody (Lin et al., Proc Natl Acad Sci 92, 8423-8427, 1995) or anti-SUB1 antibody (Guo et al., Science 291, 487-490, 2001)
The triple response phenotype was scored in T2 seedlings originated from individual Kanamycin-resistant T1 plants. Transgenic seedlings that expressed a functional EIN3-GFP fusion protein were mounted on glass slides using PBS as a mounting medium. […] For the time course experiment, after the first cell image was taken, 50 μM of ACC or MG132 was applied to the slide and the same cell was followed for 4 hr.

NC1(C(=O)O)CC1 [ACC, aminocyclopropane-1-carboxylic acid]
levels of EIN3 protein (EIN3 protein [1]; wild-type seedlings on medium with high concentrations of ACC (10 and 50 μM), 3 days): dramatically elevated | time of ACC treatment after which EIN3-GFP accumulated in the nucleus (EIN3-GFP fusion protein [2]; 50 μM ACC, time course, same cell followed for 4 hr): 1 h | abundance of EIN3-GFP in the nucleus (EIN3-GFP fusion protein [2]): substantially enhanced

CCC[C@@H](C=O)NC(=O)[C@H](CC(C)C)NC(=O)[C@H](CC(C)C)NC(=O)OCc1ccccc1 [MG115] (Cbz-Leu-Leu-[Nva]-aldehyde)
levels of EIN3 protein (EIN3 abundance) (EIN3 protein [3]): enhanced EIN3 abundance | abundance of transgenically overexpressed EIN3 protein [4]: similarly induced

CC(C)C[C@@H](C=O)NC(=O)[C@H](CC(C)C)NC(=O)[C@H](CC(C)C)NC(=O)OCc1ccccc1 [MG132] (Cbz-Leu-Leu-Leu-aldehyde)
levels of EIN3 protein (EIN3 abundance) (EIN3 protein [3]): markedly increased | abundance of transgenically overexpressed EIN3 protein [4]: similarly induced | abundance of EIN3-GFP in the nucleus (EIN3-GFP fusion protein [2]): rapid nuclear accumulation

Cl.NCCc1ccc(S(=O)(=O)F)cc1 [Pefabloc]
levels of EIN3 protein (EIN3 abundance) (EIN3 protein [3]): no effect | abundance of transgenically overexpressed EIN3 protein [4]: not

C=C [ethylene, Ethylene]
levels of EIN3 protein with de novo translation blocked (EIN3 protein [1]; ethylene-pretreated (2 hr) wild-type seedlings, 100 μM cycloheximide, kept in ethylene): remained constitutively high | level of EIN3 protein (EIN3 protein [1]; wild-type plants, ethylene gas 10 ppm, after 1 hr): markedly increased | levels of transgenically overexpressed EIN3 protein ([4]; EIN3ox plants, ethylene gas 10 ppm): up-regulated | RNA level of EBF1 gene (EBF1 gene): induced | RNA level of EBF2 gene (EBF2 gene): induced | level of EIN3-GFP fusion protein (EIN3-GFP fusion protein [5]): dramatically increased

O=[N+]([O-])[O-].[Ag+] [silver ion, AgNO3]
ethylene-induced EIN3 accumulation (EIN3 protein [1]; wild-type seedlings on MS medium with 100 μM AgNO3 for 3 days, ethylene 4 hr): no longer induced by ethylene
